Experiment [1] concerns Langerhans cells freshly isolated from human skin. As to the kind of experiment: Migration of Langerhans cells freshly isolated from human skin, activated by DNSB (two-compartment Matrigel chamber). The format is cell-based. Here is the method: Epidermal cell suspensions were obtained by enzymatic treatment (0.05% trypsine for 18 h at +4° C.) of fragments of normal human skin taken from plastic surgery. The suspensions obtained contain an average of 2 to 4% of LC. Obtaining suspensions containing an average of 70% of LC is based on the principle of centrifuging on density gradient (Lymphoprep™) and elimination of keratinocytes.
The basic medium chosen for the entire study was PRMI 1640 (Gibco BRL, France). The AK100 molecule supplied by Pharmascience, with a concentration of 10^−2 M in solution in DMSO (Dimethyl Sulfoxide) was diluted in RPMI-1640 and tested at 1 μM.
The sensitising agent was DNSB (Sigma Aldrich), a soluble form of DNCB (dinitro-chloro-benzene) solubilised in RPMI-BSA and used at a concentration of 50 μM.
A culture chamber system with two compartments (Falcon, Becton Dickinson, France) was used. The upper compartment is separated from the lower compartment by a membrane with 8 μm porosity, on which 50 μg/cm^2 Matrigel was deposited. […] After 18 h incubation at 37° C., the number of living cells that passed through the Matrigel and that are located in the lower compartment is counted under a microscope (the LCs are easily identifiable by their dendritic form). […]

Experiment [2] relates to dendritic cells generated in vitro from CD34+ precursors derived from blood from the umbilical cord. Description: Migration of dendritic cells generated in vitro from CD34+ precursors of umbilical cord blood, activated by hapten BB. The note with it: for Percentage of dendritic cells generated in vitro that migrated: BB + AK100 1 μM; for inhibition at 1 µM: Homo sapiens, Dendritic cell. The format is cell-based, human. On the procedure:
Mononucleated cells were obtained from blood from the umbilical cord of healthy donors by centrifuging on Ficoll. The CD34+ cells were then purified by immunoselection using a specific antibody and magnetic balls (Miltenyi Biotech, Germany). The CD34+ cells were cultivated in the presence of GM-CSF (100 ng/ml), TNF-α (2.5 ng/ml) in RPMI to which 10% calf foetus serum was added for 5 days. TGF-β1, a factor that encourages differentiation of cells to the Langerhans cells […], was added on the 5th day of culture.
Cells were treated by hapten BB on the 7th day (Brandowski base, 1.17 μg/ml) for 24 h, and were then subjected to the migration test.
The results represent the percentage of cells that migrated in the presence of the different tested products. The percentage is calculated by taking the ratio of the number of cells recovered in the lower compartment of the migration chamber, to the number of cells subjected to migration. AK100 inhibits the migration of dendritic cells by 51 and 25% in experiments 1 and 2 respectively.

Experiment [3] has as its system dendritic cells. As to the kind of experiment: Migration of dendritic cells to draining ganglions in mouse sensitised by FITC hapten (AK100 ± OX100, Example 5). The format is in vivo. The note with it: for Migration inhibition in %: FITC. On the procedure:
FITC (Fluoresceine isothiocyanate, Sigma, St. Louis, Mo.) was diluted extemporaneously in a mixture of acetone and dibutylphthalate (1:1).
Alkanolamide AK100 and OX100 (described above) were supplied by “Laboratoires Expanscience” and formulated alone or in association in an inert vehicle compatible with a topical application [AK100 (0.05%)±OX100 (0.05%)]. The different formulations were applied on the ears of mice twice per day for 4 consecutive days. Three hours after the last application, 1.5% of FITC was applied on both ears (one treated and the other not treated (Control)).
The effect of the two molecules was evaluated in vivo in the mouse. 1.5% FITC (2×5 μl) was applied on the skin of both ears. 24 h later, the mice were sacrificed and a cellular suspension was prepared from auricular and cervical ganglions (draining ganglions, hereinafter denoted GL) or from the poplital ganglions (non-draining ganglions, negative control). The tissues were cut and cells separated by filtration (100 μm filter, Falcon; Becton Dickinson) and then washed. The cells were then centrifuged for 10 minutes at 600×g (m×s^−2) on a metrizamide gradient (14.5% in RPMI 1640; 7.5% SVF). The interface cells were retrieved, rinsed and then marked with an anti-CDS86 PE-conjugated, biot-MHC CLII mAbs AC plus streptavidine-Cya (PharMingen) and analysed by flux cytometry. Only the FITC^+, PE^+ and Cya^+ cells are counted since they represent the population of cells that migrated from the skin to GLs following the application of hapten.

Experiment [4] deals with dendritic cells. As to the kind of experiment: Migration of dendritic cells to draining ganglions in mouse sensitised by FITC hapten (AK100 ± LU105, Example 4). It counts as in vivo. From the text:
FITC (Fluoresceine isothiocyanate, Sigma, St Louis, Mo.) was extemporaneously diluted in an acetone mix (dibutylphthalate (1:1)).
Alkanolamide AK100 and LU105 (LU 105 is an MMP inhibitor, corresponding to a peptide extract of white lupin marketed by the Expanscience Company under the brand name Actimp (193®) were supplied by “Laboratoires Expanscience” and formulated alone or association with each other in an inert vehicle compatible with a topical application (alkanolamide AK100 (0.1%)± LU105 (2%)). The different formulations were applied on the ears of mice twice per day for 4 consecutive days. 1.5% of FITC was applied on both ears (one treated and the other not treated (Control)) three hours after the last application.
The effect of the two molecules was evaluated in vivo in the mouse. 1.5% FITC (2×5 μl) was applied on the skin of both ears. […] The cells were then centrifuged for 10 minutes at 600×g (m×s^−2) on a metrizamide gradient (14.5% in RPMI 1640; 7.5% SVF) The interface cells were retrieved, rinsed and then marked with an anti-CDS86 PE-conjugated, biot-MHC CLII mAbs AC plus streptavidine-Cya (PharMingen) and analysed by flux cytometry. Only the FITC^+, PE^+ and Cya^+ cells are counted since they represent the population of cells that migrated from the skin to GLs following the application of hapten.

Where [5] appears, read: mice sensitised by FITC hapten, topical.

Molecules are shown by their SMILES.

This is an account of results in patent US8304453B2, “Composition comprising at least one alkanolamide to inhibit migration of langerhans cells and uses therof” (Laboratoires Expanscience, priority 2001, dated 2012).

One may read the inhibition as the relative decrease from the control value, in per cent.

In the case of `CCCCCCCCCCCC(=O)NC(C)(C)CO` [AK100], the “Inhibition of migration of LCs induced by DNSB” value in experiment [1] (1 μM) was “significantly inhibits”. Moreover, in experiment [1] (DNSB 50 μM + AK100 1 μM, 18 h, control cells set to 1, DNSB alone 2.55), the LC migration index was found to be 1.11. For the same molecule, in experiment [2] (1 μM), the “Inhibition of migration of dendritic cells activated by hapten BB” value is “significantly inhibits”. Besides, the “Percentage of dendritic cells generated in vitro that migrated” value in experiment [2] (Experiment 1, BB alone 17) worked out at 8.4%; in experiment [2] (Experiment 2, BB alone 24), 18%. Moreover, the inhibition at 1 µM in experiment [2] (Experiment 1, 1 μM) was determined as 51%; in experiment [2] (Experiment 2, 1 μM) it was 25%. Further, the “Migration inhibition in %” value is listed as 15% with dendritic cells [3] (AK100 0.05% topical on ears twice per day for 4 days) and 30% with dendritic cells [4] (0.1% topical on ears twice per day for 4 days, FITC). Further, the “Inhibition of migration of DCs to LGs” value with dendritic cells [3] (setting [5]) and in the experiment on dendritic cells [4] (setting [5]) was “significantly inhibits” each time.

Take `CCCCCCCCCCCC1=NC(C)(C)CO1` [OX100, 2-undecyl-4,4-dimethyl-1,3-oxazoline]: the “Migration inhibition in %” value in the experiment on dendritic cells [3] (OX100 0.05% topical on ears twice per day for 4 days) is recorded as 15%.
